For assay [1], the system named is pancreatic islets of Langerhans from GPR40−/− mice. Put plainly: glucose stimulated insulin secretion (GSIS), isolated GPR40 KO islets. The class given is cell-based, mouse. The settings on record: 10 uM compound, 60 min, individual wells. The method, then:
Pancreatic islets of Langerhans were isolated from wild-type and GPR40−/− mice (littermates) by collagenase digestion and discontinuous Ficoll gradient separation. […] Insulin secretion was determined by a 1 hr static incubation in Krebs-Ringer bicarbonate (KRB) buffer in a 96-well format as previously described. Briefly, islets were first preincubated in KRB medium with 2 mmol/l glucose for 30 min and were then transferred to a 96-well plate (three islets/well) and incubated with 200 μl of the KRB medium with 2 or 15 mmol/l glucose in the presence or absence of testing compounds for 60 min. The buffer was removed from the wells at the end of the incubation and assayed for insulin levels using the Ultrasensitive Rat Insulin ELISA kit (ALPCO, Salem, NH). All insulin secretion data were normalized by total islet numbers (ex: three islets/well), so the unit is secreted insulin (ng/ml) per islet.

Another assay deals with GK rats. Put plainly: OGTT with insulin co-measurement on Day 13 of chronic treatment, parallel set of animals. The class given is in vivo, rat. Also on record: unit not given here. The settings on record: Time 10, individual animals.

The record followed here is publication PMC5441580, “GPR40 partial agonist MK-2305 lower fasting glucose in the Goto Kakizaki rat via suppression of endogenous glucose production” (PLoS ONE, 2017).

Values joined by “and” are separate entries in the source; they are usually repeats but may differ in a detail not shown here. Equal values may be shown once.

Take `O=C1NC(=O)C(C2CCOc3cc(Oc4ccc(C(F)(F)F)cc4Cl)ccc32)S1` (stereo not shown) [MK-2305]: the “secreted insulin per islet” value in assay [1] (2mM glucose) was 0.3958 ng/ml per islet and 0.3056 ng/ml per islet and 0.5799 ng/ml per islet and 0.6404 ng/ml per islet and 0.5029 ng/ml per islet and 1.032 ng/ml per islet and 0.612 ng/ml per islet and 0.7615 ng/ml per islet; in assay [1] (15 mM Glucose), 2.615 ng/ml per islet and 3.66 ng/ml per islet and 2.83 ng/ml per islet and 4.29 ng/ml per islet and 3.64 ng/ml per islet and 2.75 ng/ml per islet and 4.57 ng/ml per islet and 4.28 ng/ml per islet. Besides, the “Change in plasma insulin from baseline during OGTT (delta insulin)” value with GK rats (Acute, 30 mpk, 30 mg/kg) is 1.28 and 1.368 and 1.816 and 3.661 and 3.304 and 1.312 and 2.648 and 2.392 and 0.317 and 1.559; with GK rats (Chronic, 30 mkd), 1.342 and 0.561 and 1.202 and 1.9 and 1.117 and 1.167 and 2.431 and 1.17 and 1.428 and 0.831.
